The assay deals with T1, human 5-HT3A receptor (Homo sapiens, UniProt P46098).
T1 construct: host or cells: HEK-293
T1 sequence (P46098 24-478): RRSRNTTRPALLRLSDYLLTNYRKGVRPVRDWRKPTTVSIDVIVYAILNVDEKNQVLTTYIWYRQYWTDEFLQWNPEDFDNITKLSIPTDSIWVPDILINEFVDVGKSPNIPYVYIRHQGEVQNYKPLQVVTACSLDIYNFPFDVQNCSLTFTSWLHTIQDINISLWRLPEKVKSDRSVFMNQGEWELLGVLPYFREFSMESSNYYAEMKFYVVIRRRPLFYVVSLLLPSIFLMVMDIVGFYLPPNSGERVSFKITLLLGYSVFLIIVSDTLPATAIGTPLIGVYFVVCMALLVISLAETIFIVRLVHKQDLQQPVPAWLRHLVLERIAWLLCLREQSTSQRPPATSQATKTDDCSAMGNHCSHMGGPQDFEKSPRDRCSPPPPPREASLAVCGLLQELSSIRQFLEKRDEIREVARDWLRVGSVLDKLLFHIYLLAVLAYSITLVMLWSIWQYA
Description: Radioligand binding assay on 5-HT3A human receptors: determination of receptor subtype selectivity. The conditions noted are these: [3H]-GR65630 at 0.50 nM for 5-HT3A. The method, then:
Assay 2: Radioligand Binding Assay on 5-HT3A Human Receptors: Determination of Receptor Subtype Selectivity
a. Membrane Preparation 5-HT3A
HEK-293 (human embryonic kidney) cells stably-transfected with human 5-HT3A receptor cDNA were obtained from Dr. Michael Bruess (University of Bonn, […]) (Bmax=˜[…] protein, as determined using [^3H]-GR65630 membrane radioligand binding assay). […]
Radioligand binding assays were performed in 96-well polypropylene assay plates in a total assay volume of 200 μL containing 1.5-2 μg membrane protein in 50 mM HEPES pH 7.4, containing 0.025% BSA assay buffer. […] Non-specific binding was determined in the presence of 10 μM unlabeled MDL72222. […] Filter plates were washed three times with filtration buffer (ice-cold 50 mM HEPES, pH7.4) to remove unbound radioactivity. Plates were dried, 35 μL Microscint-20 liquid scintillation fluid (Packard BioScience Co., Meriden, Conn.) was added to each well and plates were counted in a Packard Topcount liquid scintillation counter (Packard BioScience Co., Meriden, Conn.).
Binding data were analyzed using the non-linear regression procedure described above to determine Ki values. The BOTTOM (curve minimum) was fixed to the value for nonspecific binding, as determined in the presence of 10 μM MDL72222. The quantity [L] in the Cheng-Prusoff equation was defined as the concentration [^3H]-GR65630. […]

Each structure is given as a SMILES string.

As for `CC(C)n1c(=O)n(C(=O)N[C@H]2C[C@H]3CC[C@@H](C2)N3CCCOC(=O)N2CCN(C(=O)C3CCCO3)CC2)c2ccccc21` (stereo partly drawn) [Example 1, 4-(tetrahydrofuran-2-carbonyl)piperazine-1-carboxylic acid 3-{(1S,3R,5R)-3-[(3-isopropyl-2-oxo-2,3-dihydrobenzoimidazole-1-carbonyl)amino]-8-aza-bicyclo[3.2.1]oct-8-yl}propyl ester], the “5-HT4/5-HT3 receptor subtype selectivity, ratio Ki(5-HT3A)/Ki(5-HT4(c))” value was determined as 160.

Source of the values: patent US7851467B2, “Carbamate compounds as 5-HT4 receptor agonists” (Theravance, Inc., priority 2005, dated 2010).
